test system: Amaranthus retroflexus; assay: Pre-emergence herbicidal activity, AMARE; type: in vivo; conditions: Application pre-emergence, 1000 g/Ha, evaluated after 13 days, scale 0-5
Experimental: (§1) Seeds of a variety of test species were sown in standard soil in pots. After cultivation for one day (pre-emergence) under controlled conditions in a glasshouse (at 24/16° C., day/night; 14 hours light; 65% humidity), the plants were sprayed with an aqueous spray solution derived from the formulation of the technical active ingredient in acetone/water (50:50) solution containing 0.5% Tween 20 (polyoxyethelyene sorbitan monolaurate, CAS RN 9005-64-5). The test plants were then grown in a glasshouse under controlled conditions (at 24/16° C., day/night; 14 hours light; 65% humidity) and watered twice daily. After 13 days, the test was evaluated (5=total damage to plant; 0=no damage to plant).

| Structure (SMILES) | AMARE damage score |
| --- | --- |
| CN1CC(O)N(c2cc(C(F)F)c(Cl)cn2)C1=O (stereo not shown) [Compound A47] | 4 |
| CCOC(=O)c1cncc(-c2cnc(N3C(=O)N(C)CC3O)cc2C(F)(F)F)c1 (stereo not shown) [Compound A34] | 5 |
| COC(C)(C)c1ccnc(N2C(=O)N(C)CC2O)c1 (stereo not shown) [Compound A49] | 5 |
| COC(F)(F)c1ccnc(N2C(=O)N(C)CC2O)c1 (stereo not shown) [Compound A50] | 5 |
| CN1CC(O)N(c2cc(C(F)(F)F)c(-c3ccc(N4CCOCC4)nc3)cn2)C1=O (stereo not shown) [Compound A31] | 2 |
| CN1CC(O)N(c2cc(C(F)(F)Cl)ccn2)C1=O (stereo not shown) [Compound A46] | 5 |

test system: Echinochloa crus-galli; assay: Pre-emergence herbicidal activity, ECHCG; type: in vivo; conditions: Application pre-emergence, 1000 g/Ha, evaluated after 13 days, scale 0-5
Experimental: as §1

| Structure (SMILES) | ECHCG damage score |
| --- | --- |
| CN1CC(O)N(c2cc(C(F)F)c(Cl)cn2)C1=O (stereo not shown) [Compound A47] | 4 |
| CCOC(=O)c1cncc(-c2cnc(N3C(=O)N(C)CC3O)cc2C(F)(F)F)c1 (stereo not shown) [Compound A34] | 4 |
| COC(C)(C)c1ccnc(N2C(=O)N(C)CC2O)c1 (stereo not shown) [Compound A49] | 5 |
| COC(F)(F)c1ccnc(N2C(=O)N(C)CC2O)c1 (stereo not shown) [Compound A50] | 1 |
| CN1CC(O)N(c2cc(C(F)(F)F)c(-c3ccc(N4CCOCC4)nc3)cn2)C1=O (stereo not shown) [Compound A31] | 0 |
| CN1CC(O)N(c2cc(C(F)(F)Cl)ccn2)C1=O (stereo not shown) [Compound A46] | 4 |

test system: Abutilon theophrasti; assay: Pre-emergence herbicidal activity, ABUTH; type: in vivo; conditions: Application pre-emergence, 1000 g/Ha, evaluated after 13 days, scale 0-5
Experimental: as §1

| Structure (SMILES) | ABUTH damage score |
| --- | --- |
| CN1CC(O)N(c2cc(C(F)F)c(Cl)cn2)C1=O (stereo not shown) [Compound A47] | 4 |
| CCOC(=O)c1cncc(-c2cnc(N3C(=O)N(C)CC3O)cc2C(F)(F)F)c1 (stereo not shown) [Compound A34] | 5 |
| COC(C)(C)c1ccnc(N2C(=O)N(C)CC2O)c1 (stereo not shown) [Compound A49] | 5 |
| COC(F)(F)c1ccnc(N2C(=O)N(C)CC2O)c1 (stereo not shown) [Compound A50] | 2 |
| CN1CC(O)N(c2cc(C(F)(F)F)c(-c3ccc(N4CCOCC4)nc3)cn2)C1=O (stereo not shown) [Compound A31] | 2 |
| CN1CC(O)N(c2cc(C(F)(F)Cl)ccn2)C1=O (stereo not shown) [Compound A46] | 5 |

test system: Setaria faberi; assay: Pre-emergence herbicidal activity, SETFA; type: in vivo; conditions: Application pre-emergence, 1000 g/Ha, evaluated after 13 days, scale 0-5
Experimental: as §1

| Structure (SMILES) | SETFA damage score |
| --- | --- |
| CN1CC(O)N(c2cc(C(F)F)c(Cl)cn2)C1=O (stereo not shown) [Compound A47] | 4 |
| CCOC(=O)c1cncc(-c2cnc(N3C(=O)N(C)CC3O)cc2C(F)(F)F)c1 (stereo not shown) [Compound A34] | 3 |
| COC(C)(C)c1ccnc(N2C(=O)N(C)CC2O)c1 (stereo not shown) [Compound A49] | 5 |
| COC(F)(F)c1ccnc(N2C(=O)N(C)CC2O)c1 (stereo not shown) [Compound A50] | 2 |
| CN1CC(O)N(c2cc(C(F)(F)F)c(-c3ccc(N4CCOCC4)nc3)cn2)C1=O (stereo not shown) [Compound A31] | 2 |
| CN1CC(O)N(c2cc(C(F)(F)Cl)ccn2)C1=O (stereo not shown) [Compound A46] | 5 |

test system: Zea mays; assay: Pre-emergence herbicidal activity, ZEAMX; type: in vivo; conditions: Application pre-emergence, 1000 g/Ha, evaluated after 13 days, scale 0-5
Experimental: as §1

| Structure (SMILES) | ZEAMX damage score |
| --- | --- |
| CN1CC(O)N(c2cc(C(F)F)c(Cl)cn2)C1=O (stereo not shown) [Compound A47] | 0 |
| CCOC(=O)c1cncc(-c2cnc(N3C(=O)N(C)CC3O)cc2C(F)(F)F)c1 (stereo not shown) [Compound A34] | 1 |
| COC(C)(C)c1ccnc(N2C(=O)N(C)CC2O)c1 (stereo not shown) [Compound A49] | 2 |
| COC(F)(F)c1ccnc(N2C(=O)N(C)CC2O)c1 (stereo not shown) [Compound A50] | 1 |
| CN1CC(O)N(c2cc(C(F)(F)F)c(-c3ccc(N4CCOCC4)nc3)cn2)C1=O (stereo not shown) [Compound A31] | 0 |
| CN1CC(O)N(c2cc(C(F)(F)Cl)ccn2)C1=O (stereo not shown) [Compound A46] | 2 |

test system: Amaranthus retroflexus; assay: Post-emergence herbicidal activity, AMARE; type: in vivo; conditions: Application post-emergence, 1000 g/Ha, evaluated after 13 days, scale 0-5
Experimental: (§2) Seeds of a variety of test species were sown in standard soil in pots. After 8 days cultivation (post-emergence) under controlled conditions in a glasshouse (at 24/16° C., day/night; 14 hours light; 65% humidity), the plants were sprayed with an aqueous spray solution derived from the formulation of the technical active ingredient in acetone/water (50:50) solution containing 0.5% Tween 20 (polyoxyethelyene sorbitan monolaurate, CAS RN 9005-64-5). The test plants were then grown in a glasshouse under controlled conditions (at 24/16° C., day/night; 14 hours light; 65% humidity) and watered twice daily. After 13 days, the test was evaluated (5=total damage to plant; 0=no damage to plant).

| Structure (SMILES) | AMARE damage score |
| --- | --- |
| CCOC(=O)c1cncc(-c2cnc(N3C(=O)N(C)CC3O)cc2C(F)(F)F)c1 (stereo not shown) [Compound A34] | 5 |
| COC(C)(C)c1ccnc(N2C(=O)N(C)CC2O)c1 (stereo not shown) [Compound A49] | 5 |
| COC(F)(F)c1ccnc(N2C(=O)N(C)CC2O)c1 (stereo not shown) [Compound A50] | 5 |
| CN1CC(O)N(c2cc(C(F)(F)F)c(-c3ccc(N4CCOCC4)nc3)cn2)C1=O (stereo not shown) [Compound A31] | 5 |

test system: Abutilon theophrasti; assay: Post-emergence herbicidal activity, ABUTH; type: in vivo; conditions: Application post-emergence, 1000 g/Ha, evaluated after 13 days, scale 0-5
Experimental: as §2

| Structure (SMILES) | ABUTH damage score |
| --- | --- |
| CCOC(=O)c1cncc(-c2cnc(N3C(=O)N(C)CC3O)cc2C(F)(F)F)c1 (stereo not shown) [Compound A34] | 5 |
| COC(C)(C)c1ccnc(N2C(=O)N(C)CC2O)c1 (stereo not shown) [Compound A49] | 5 |
| COC(F)(F)c1ccnc(N2C(=O)N(C)CC2O)c1 (stereo not shown) [Compound A50] | 5 |
| CN1CC(O)N(c2cc(C(F)(F)F)c(-c3ccc(N4CCOCC4)nc3)cn2)C1=O (stereo not shown) [Compound A31] | 5 |

test system: Setaria faberi; assay: Post-emergence herbicidal activity, SETFA; type: in vivo; conditions: Application post-emergence, 1000 g/Ha, evaluated after 13 days, scale 0-5
Experimental: as §2

| Structure (SMILES) | SETFA damage score |
| --- | --- |
| CCOC(=O)c1cncc(-c2cnc(N3C(=O)N(C)CC3O)cc2C(F)(F)F)c1 (stereo not shown) [Compound A34] | 5 |
| COC(C)(C)c1ccnc(N2C(=O)N(C)CC2O)c1 (stereo not shown) [Compound A49] | 5 |
| COC(F)(F)c1ccnc(N2C(=O)N(C)CC2O)c1 (stereo not shown) [Compound A50] | 5 |
| CN1CC(O)N(c2cc(C(F)(F)F)c(-c3ccc(N4CCOCC4)nc3)cn2)C1=O (stereo not shown) [Compound A31] | 5 |

test system: Echinochloa crus-galli; assay: Post-emergence herbicidal activity, ECHCG; type: in vivo; conditions: Application post-emergence, 1000 g/Ha, evaluated after 13 days, scale 0-5
Experimental: as §2

| Structure (SMILES) | ECHCG damage score |
| --- | --- |
| CN1CC(O)N(c2cc(C(F)F)c(Cl)cn2)C1=O (stereo not shown) [Compound A47] | 4 |
| CCOC(=O)c1cncc(-c2cnc(N3C(=O)N(C)CC3O)cc2C(F)(F)F)c1 (stereo not shown) [Compound A34] | 5 |
| COC(C)(C)c1ccnc(N2C(=O)N(C)CC2O)c1 (stereo not shown) [Compound A49] | 5 |
| COC(F)(F)c1ccnc(N2C(=O)N(C)CC2O)c1 (stereo not shown) [Compound A50] | 5 |
| CN1CC(O)N(c2cc(C(F)(F)F)c(-c3ccc(N4CCOCC4)nc3)cn2)C1=O (stereo not shown) [Compound A31] | 4 |
| CN1CC(O)N(c2cc(C(F)(F)Cl)ccn2)C1=O (stereo not shown) [Compound A46] | 5 |

test system: Zea mays; assay: Post-emergence herbicidal activity, ZEAMX; type: in vivo; conditions: Application post-emergence, 1000 g/Ha, evaluated after 13 days, scale 0-5
Experimental: as §2

| Structure (SMILES) | ZEAMX damage score |
| --- | --- |
| CCOC(=O)c1cncc(-c2cnc(N3C(=O)N(C)CC3O)cc2C(F)(F)F)c1 (stereo not shown) [Compound A34] | 3 |
| COC(C)(C)c1ccnc(N2C(=O)N(C)CC2O)c1 (stereo not shown) [Compound A49] | 3 |
| COC(F)(F)c1ccnc(N2C(=O)N(C)CC2O)c1 (stereo not shown) [Compound A50] | 1 |
| CN1CC(O)N(c2cc(C(F)(F)F)c(-c3ccc(N4CCOCC4)nc3)cn2)C1=O (stereo not shown) [Compound A31] | 2 |
